Strand notation (5' to 3'): a small letter for the sugar, then the base; units joined by * are phosphorothioate-linked, units joined directly phosphodiester-linked; [ ] holds rarer units or linkages, { } end groups; capitals alone tell only the bases. e = 2'-O-(2-methoxyethyl) (MOE); [5mC] = 5-methylcytosine; d = 2'-deoxy (DNA)
system: human B7-2; test: Cell surface expression of B7-2 in transfected COS-7 cells by flow cytometry; assay type: cell-based; conditions: 200 nM; FIG. 3
Experimental: A T-175 flask was seeded at 75% confluency with COS-7 cells (ATCC accession No. CRL 1651). The plasmid pcB7-1 was introduced into cells by standard calcium phosphate transfection. Following a 4 hour transfection, the cells were trypsinized and seeded in 12-well dishes at 80% confluency. The cells were allowed to adhere to the plastic for 1 hour and were then washed with phosphate-buffered saline (PBS). OptiMEM™ (GIBCO-BRL, Gaithersburg, Md.) medium was added along with 15 μg/mL of Lipofectin™ (GIBCO-BRL, Gaithersburg, Md.) and oligonucleotide at the indicated concentrations. After four additional hours, the cells were washed with phosphate buffered saline (PBS) and incubated with fresh oligonucleotide at the same concentration in DMEM (Dulbecco et al., Virol., 1959, 8, 396; Smith et al., Virol., 1960, 12, 185) with 10% fetal calf sera (FCS).
In order to monitor the effects of oligonucleotides on cell surface expression of B7-1, treated COS-7 cells were harvested by brief trypsinization 24-48 hours after oligonucleotide treatment. The cells were washed with PBS, then resuspended in 100 μL of staining buffer (PBS, 0.2% BSA, 0.1% azide) with 5 μL conjugated anti-B7-1-antibody (i.e., anti-hCD80-FITC, Ancell, Bayport, Minn.; FITC: fluorescein isothiocyanate). The cells were stained for 30 minutes at 4° C., washed with PBS, resuspended in 300 μL containing 0.5% paraformaldehyde. Cells were harvested and the fluorescence profiles were determined using a flow cytometer.
In an initial screen, the ability of hB7-2 oligonucleotides to inhibit B7-2 expression was evaluated by measuring the cell surface expression of B7-2 in transfected COS-7 cells by flow cytometry. The methods used were similar to those given in Example 2, with the exceptions that (1) COS-7 cells were transfected with the plasmids pbcB7-2 or BBG-58, a human ICAM-1 (CD54) expression vector (R&D Systems, Minneapolis, Minn.) introduced into cells by standard calcium phosphate transfection, (2) the oligonucleotides used were those described in Table 2, and (3) a conjugated anti-B7-2 antibody (i.e., anti-hCD86-FITC or anti-CD86-PE, PharMingen, San Diego, Calif.; PE: phycoerythrin) was used during flow cytometry.
B7 antisense oligonucleotides were tested for their effect on cell surface expression of both B7-1 and B7-2. Cell surface expression was measured as described in Example 1. Experiments were done for both human B7 and mouse B7.
The oligonucleotides were screened as described in Example 2 except that the concentration of oligonucleotide was varied as shown in Table 19.

| Substance | inhibitory activity on B7-2 cell surface expression |
| --- | --- |
| ISIS 10716: scrambled # 9136; SEQ ID NO: 77 (antisense dA*dA*dA*dG*dT*dT*dA*dC*dA*dA*dC*dA*dT*dT*dA*dT*dA*dT*dC*dT) [reference compound] | no inhibitory activity |

same assay, conditions: 200 nM; protein expression assay; ISIS 10996 and 2′-O-methyl derivatives

| Substance | B7-2 expression relative to untreated cells |
| --- | --- |
| 5′-GCG-AGC-TCC-CCG-TAC (antisense GCGAGCTCCCCGTAC; listed as DNA, chemistry not given here) [ISIS 10996, 15-mer derived from ISIS 10373, 0015-0029; 5′-UTR] | about 50% |

same assay, conditions: ISIS 10373 deletion derivatives; FIG. 4

| Substance | activity in the B7-2 protein expression assay |
| --- | --- |
| ISIS 10993: # 10373 deletion derivative, 12-mer, 0015-0026; SEQ ID NO: 87 (antisense dA*dG*dC*dT*dC*dC*dC*dC*dG*dT*dA*dC) | little or no activity |
| 5′-GCG-AGC-TCC-CCG-TAC (antisense GCGAGCTCCCCGTAC; listed as DNA, chemistry not given here) [ISIS 10996, 15-mer derived from ISIS 10373, 0015-0029; 5′-UTR] | as (or more) active |
| ISIS 10992: # 10373 deletion derivative, 11-mer, 0015-0025; SEQ ID NO: 86 (antisense dG*dC*dT*dC*dC*dC*dC*dG*dT*dA*dC) | little or no activity |
| ISIS 10991: # 10373 deletion derivative, 10-mer, 0015-0024; SEQ ID NO: 85 (antisense dC*dT*dC*dC*dC*dC*dG*dT*dA*dC) | little or no activity |
| ISIS 10995: # 10373 deletion derivative, 14-mer, 0015-0028; SEQ ID NO: 89 (antisense dC*dG*dA*dG*dC*dT*dC*dC*dC*dC*dG*dT*dA*dC) | little or no activity |
| ISIS 10994: # 10373 deletion derivative, 13-mer, 0015-0027; SEQ ID NO: 88 (antisense dG*dA*dG*dC*dT*dC*dC*dC*dC*dG*dT*dA*dC) | little or no activity |

system: human B7.2 mRNA; test: Human B7.2 mRNA levels in THP-1 cells by quantitative real-time PCR (Example 27); assay type: cell-based; design: concentration or dose not given beside the values; conditions: not given
Excerpt: In accordance with the present invention, an additional series of antisense compounds were designed to target different regions of the human B7.2 RNA, using published sequences (GenBank accession number U04343.1, incorporated herein as SEQ ID NO: 295, GenBank accession number BC040261.1, incorporated herein as SEQ ID NO: 296 and GenBank accession number NT—005543.12, a portion of which is incorporated herein as SEQ ID NO: 297). “Target site” indicates the first (5′-most) nucleotide number on the particular target sequence to which the compound binds. All compounds in Table 25 are chimeric oligonucleotides (“gapmers”) 20 nucleotides in length, composed of a central “gap” region consisting of ten 2′-deoxynucleotides, which is flanked on both sides (5′ and 3′ directions) by five-nucleotide “wings”. The wings are composed of 2′-methoxyethyl (2′-MOE)nucleotides. The internucleoside (backbone) linkages are phosphorothioate (P═S) throughout the oligonucleotide. All cytidine residues are 5-methylcytidines. The compounds were analyzed for their effect on human B7.2 mRNA levels in THP-1 cells by quantitative real-time PCR as described in other examples herein. Data are averages from three experiments. If present, “N.D.” indicates “no data”.

| Substance | % INHIB (inhibition of human B7.2 mRNA levels) |
| --- | --- |
| 323691 (antisense eG*e[5mC]*eT*eT*eT*dA*d[5mC]*dT*d[5mC]*dT*dT*dT*dA*dA*dT*eT*eA*eA*eA*eA) [compound 323691] | 40% |
| 323689 (antisense eT*eT*e[5mC]*eA*eT*d[5mC]*dA*dG*dA*dT*d[5mC]*dT*dT*dT*d[5mC]*eA*eG*eG*eT*eA) [compound 323689] | 43% |
| 323676 (antisense e[5mC]*e[5mC]*eT*e[5mC]*eA*dA*dG*d[5mC]*dT*d[5mC]*dT*dA*dT*dA*dG*eA*eG*eA*eA*eA) [compound 323676] | 24% |
| 323657 (antisense eT*e[5mC]*eT*eG*eT*dT*dA*dT*dA*dT*dT*dA*dG*dA*dA*eA*eT*eT*eG*eG) [compound 323657] | 43% |
| 323665 (antisense eG*eA*eT*eA*eG*dT*dT*dG*dA*dA*dT*dT*d[5mC]*dT*dT*eG*eG*eT*eT*e[5mC]) [compound 323665] | 43% |
| 323664 (antisense eA*eT*eT*e[5mC]*eT*dT*dG*dG*dT*dT*d[5mC]*dT*dT*dA*dG*e[5mC]*eA*eA*eA*eA) [compound 323664] | 35% |
| 323627 (antisense eG*eG*eA*eA*eG*dG*d[5mC]*d[5mC]*dA*dT*d[5mC]*dA*d[5mC]*dA*dA*eA*eG*eA*eG*eA) [compound 323627] | 54% |
| 323690 (antisense eA*eT*e[5mC]*eA*e[5mC]*dT*dT*dT*dT*dG*dT*d[5mC]*dG*d[5mC]*dA*eT*eG*eA*eA*eG) [compound 323690] | 82% |
| 323637 (antisense e[5mC]*e[5mC]*eT*e[5mC]*eA*dT*dT*d[5mC]*dA*dG*dA*dA*d[5mC]*d[5mC]*dA*eA*eG*eT*eT*eT) [compound 323637] | 19% |
| 323673 (antisense e[5mC]*eA*eT*e[5mC]*eA*dG*dG*dG*dA*dA*dT*dG*dA*dA*dA*e[5mC]*eA*eG*eA*e[5mC]) [compound 323673] | 38% |
| 323633 (antisense e[5mC]*eT*eA*e[5mC]*eT*dA*dG*d[5mC]*dT*d[5mC]*dA*d[5mC]*dT*d[5mC]*dA*eG*eG*e[5mC]*eT*eT) [compound 323633] | 50% |
| 323630 (antisense eA*eA*eA*eT*eA*dA*dG*d[5mC]*dT*dT*dG*dA*dA*dT*d[5mC]*eT*eT*e[5mC]*eA*eG) [compound 323630] | 22% |
| 323658 (antisense eG*e[5mC]*eA*eG*eG*dT*d[5mC]*dA*dA*dA*dT*dT*dT*dA*dT*eG*eT*eA*e[5mC]*eA) [compound 323658] | 36% |
| 323692 (antisense eG*eT*eA*eT*eG*dG*dG*d[5mC]*dT*dT*dT*dA*d[5mC]*dT*d[5mC]*eT*eT*eT*eA*eA) [compound 323692] | 57% |
| 323639 (antisense eG*e[5mC]*e[5mC]*eT*eA*dA*dG*dT*dA*dT*dA*d[5mC]*d[5mC]*dT*d[5mC]*eA*eT*eT*e[5mC]*eA) [compound 323639] | 55% |
| 323684 (antisense eA*eT*eT*eT*eA*dT*dA*dA*dG*dA*dG*dT*dT*dG*d[5mC]*eG*eA*eG*eG*e[5mC]) [compound 323684] | 32% |
| 323625 (antisense e[5mC]*eA*eA*eA*eG*dA*dG*dA*dA*dT*dG*dT*dT*dA*d[5mC]*eT*e[5mC]*eA*eG*eT) [compound 323625] | 21% |
| 323681 (antisense e[5mC]*eA*eT*e[5mC]*eA*d[5mC]*dA*d[5mC]*dA*dT*dA*dT*dA*dA*dT*eA*eA*e[5mC]*eT*eG) [compound 323681] | 8% |
| 323659 (antisense eG*eT*eA*eT*eA*dG*dA*dT*dG*dA*dG*d[5mC]*dA*dG*dG*eT*e[5mC]*eA*eA*eA) [compound 323659] | 56% |
| 323641 (antisense e[5mC]*e[5mC]*e[5mC]*eA*eT*dA*dT*dA*d[5mC]*dT*dT*dG*dG*dA*dA*eT*eG*eA*eA*e[5mC]) [compound 323641] | 88% |
| 323667 (antisense eA*eT*e[5mC]*eT*eT*dG*dA*dG*dA*dT*dT*dT*d[5mC]*dT*dG*e[5mC]*eA*eT*eA*eA) [compound 323667] | 52% |
| 323631 (antisense eA*eG*eT*e[5mC]*eT*d[5mC]*dA*dT*dT*dG*dA*dA*dA*dT*dA*eA*eG*e[5mC]*eT*eT) [compound 323631] | 56% |
| 323643 (antisense eA*eT*e[5mC]*eA*eA*dA*dA*d[5mC]*dT*dT*dG*dT*dG*d[5mC]*dG*eG*e[5mC]*e[5mC]*e[5mC]*eA) [compound 323643] | 80% |
| 323624 (antisense eG*eT*eT*eA*e[5mC]*dT*d[5mC]*dA*dG*dT*d[5mC]*d[5mC]*d[5mC]*dA*dT*eA*eG*eT*eG*e[5mC]) [compound 323624] | 59% |
| 323675 (antisense eA*eG*e[5mC]*eT*e[5mC]*dT*dA*dT*dA*dG*dA*dG*dA*dA*dA*eG*eG*eT*eG*eA) [compound 323675] | 77% |
| 323628 (antisense eG*eA*eG*e[5mC]*eA*dG*dG*dA*dA*dG*dG*d[5mC]*d[5mC]*dA*dT*e[5mC]*eA*e[5mC]*eA*eA) [compound 323628] | 44% |
| 323662 (antisense eT*eA*eG*e[5mC]*eA*dA*dA*dA*d[5mC]*dA*d[5mC]*dT*d[5mC]*dA*dT*e[5mC]*eT*eT*e[5mC]*eT) [compound 323662] | 22% |
